According to PubChem BioAssay AID1963836 (Molecular Pharmacology Branch, DTP, NCI, 2024):

Tested on: 857933-349-R-J2-PDC complex spheroid viability
Experiment: Anticancer human tumor 857933-349-R-J2-PDC patient-derived colon adenocarcinoma cell line growth inhibition [POLQ]
Settings: for IC50: curve of first compound; for viability, T/C: stronger effect = lower value
Description: Multicellular complex tumor spheroid response to Polymerase (POL) inhibitors (novobiocin, ART-558, RP6685) in combination with a variety of drugs and investigational agents in selected tumor cell lines
The POL inhibitors (novobiocin, ART-558, and RP6685) were evaluated both individually and in combination with standard of care and investigational anticancer small molecules within a complex spheroid model of solid tumors. . Complex spheroids include a stromal component modeled by human endothelial cells (HUVEC) and fibroblasts modeled by human mesenchymal stem cells (MSCs). The concentration ranges selected for each drug and investigational agent were based upon clinically achievable concentrations if the clinical Cmax of the agent was known.
Compounds. The drugs and investigational agents: novobiocin (NSC847541), ART-558 (NSC835418), RP-6685 (NSC848927), peposertib (NSC802822), ceralasertib (NSC780249), elimusertib (NSC800525), camonsertib (NSC841442), AZD-1390 (NSC803789), olaparib (NSC753686), talazoparib (NSC767125), rucaparib (NSC756644), sotorasib (NSC818433), MRTX-1133 (NSC836407), SN-38 (NSC673596), topotecan (NSC609699), epotoside (NSC141540), doxorubicin (NSC123127), gemcitabine (NSC613327), 5-fluorouracil (NSC19893), paclitaxel (NSC125973), vemurafenib (NSC761431), MSA-2 (NSC828583), SN-011 (NSC837082), adavosertib (NSC754352), prexasertib (NSC758257), carboplatin (NSC241240) and oxaliplatin (NSC266046), were obtained from the National Cancer Institute (NCI) Developmental Therapeutics Program Chemical Repository (21). The FDA-approved anticancer drug set is available from the Developmental Therapeutics Program at https://dtp.cancer.gov/organization/dscb/obtaining/. […] The stock solutions were prepared in dimethyl sulfoxide (DMSO, Sigma-Aldrich, St. Louis, MO, cat. D2650), except for the platinum compounds which were prepared in saline (Quality Biological, Gaithersburg, MD, cat. 114-055-101), at 800-fold the tested concentration and stored at -70 degrees C prior to their use. All drugs and investigational agents were tested over a range starting from a high concentration at or near the clinical Cmax and decreasing in half-log increments. If the clinical Cmax for an agent had not been determined, the highest concentration tested was 10 microM, except for SN-38, which was tested at a high concentration of 1 microM.
Cell Culture. All cells were maintained in an incubator at 37 degrees C and 5% CO2 with 95% humidity. The PDC lines were cultured according to standard operating procedures established by the NCI PDMR (https://pdmr.cancer.gov). Table 3 of the manuscript, lists the cell lines along with the number of the three cell types plated to form the mct-spheroids and media for tumor cell growth. After thawing, all PDC lines, except 997537-175-T-J1-PDC and 415267-285-R-J2-PDC, were cultured in Matrigel-coated flasks prepared with a working solution of 1X Ham's F-12 nutrient mix, without supplementation (Thermo Fisher Scientific, cat. 11765054), 100 U/mL penicillin-streptomycin (Thermo Fisher Scientific, cat. 15140122), and 2.5% Matrigel (Corning Inc., Corning, NY, cat. 354248) for the first three passages. The two PDC lines 997537-175-T-J1-PDC and 415267-285-R-J2-PDC were cultured on uncoated flasks. The 857933-349-R-J2-PDC line was cultured in 6C/Colon 1B media containing advanced DMEM/F-12 (Thermo Fisher Scientific, cat. 12634028), 10 mM HEPES (Thermo Fisher Scientific, cat. 15630080), 1X GlutaMAX supplement (Thermo Fisher Scientific, cat. 35050061), 0.1 mg/mL primocin (InvivoGen, San Diego, CA, cat. ant-pm-2), 10% defined fetal bovine serum, heat inactivated (HyClone Laboratories Inc., Logan, UT, cat. SH30070.03HI), 50% L-WRN conditioned media (ATCC, cat. CRL-3276), 1.25 mM N-Acetyl-L-cysteine (Sigma-Aldrich, cat. A9165), 10 mM nicotinamide (Sigma-Aldrich, cat. N0636), 1X B-27 supplement (Thermo Fisher Scientific, cat. 17504044), 1X N-2 supplement (Thermo Fisher Scientific, cat. […]
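Further: spheroids exposed to compounds for seven days before readout.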

Compound `O=C(Nc1ccc(O)c(NS(=O)(=O)c2ccc(F)cc2)c1)c1ccc(-c2ccccc2)cc1` + Nc1ccc(C#CCN(C(=O)Cc2ncc(C(F)(F)F)cc2C(F)(F)F)c2ccc(F)cc2)nn1 has an IC50 (second compound 0.0316 µM) greater than 10 µM, an IC50 (second compound 0.1 µM) greater than 10 µM and an IC50 (second compound 0.316 µM) greater than 10 µM. For the same compound, the IC50 (second compound 1 µM) was greater than 10 µM, the IC50 (second compound 3.16 µM) was greater than 10 µM and the IC50 (second compound 10 µM) was greater than 10 µM. It also gave a viability, T/C (second compound 0.0316 µM, first compound 0.0316 µM) of 95.1%, a viability, T/C (second compound 0.0316 µM, first compound 0.1 µM) of 108% and a viability, T/C (second compound 0.0316 µM, first compound 0.316 µM) of 103%. It also gave a viability, T/C (second compound 0.0316 µM, first compound 1 µM) of 111%, a viability, T/C (second compound 0.0316 µM, first compound 3.16 µM) of 110% and a viability, T/C (second compound 0.0316 µM, first compound 10 µM) of 92%. The viability, T/C (second compound 0.1 µM, first compound 0.0316 µM) was 90.1%, the viability, T/C (second compound 0.1 µM, first compound 0.1 µM) was 96.6% and the viability, T/C (second compound 0.1 µM, first compound 0.316 µM) was 97%. It also gave a viability, T/C (second compound 0.1 µM, first compound 1 µM) of 103%, a viability, T/C (second compound 0.1 µM, first compound 3.16 µM) of 119% and a viability, T/C (second compound 0.1 µM, first compound 10 µM) of 103%. For the same compound, the viability, T/C (second compound 0.316 µM, first compound 0.0316 µM) was 84.2%, the viability, T/C (second compound 0.316 µM, first compound 0.1 µM) was 98.8% and the viability, T/C (second compound 0.316 µM, first compound 0.316 µM) was 91.2%. The viability, T/C (second compound 0.316 µM, first compound 1 µM) was 102%, the viability, T/C (second compound 0.316 µM, first compound 3.16 µM) was 110% and the viability, T/C (second compound 0.316 µM, first compound 10 µM) was 98.8%. The viability, T/C (second compound 1 µM, first compound 0.0316 µM) was 90.7%, the viability, T/C (second compound 1 µM, first compound 0.1 µM) was 106% and the viability, T/C (second compound 1 µM, first compound 0.316 µM) was 101%. The viability, T/C (second compound 1 µM, first compound 1 µM) was 97.9%, the viability, T/C (second compound 1 µM, first compound 3.16 µM) was 89.7% and the viability, T/C (second compound 1 µM, first compound 10 µM) was 94.2%. For the same compound, the viability, T/C (second compound 3.16 µM, first compound 0.0316 µM) was 97%, the viability, T/C (second compound 3.16 µM, first compound 0.1 µM) was 96.2% and the viability, T/C (second compound 3.16 µM, first compound 0.316 µM) was 104%. It also gave a viability, T/C (second compound 3.16 µM, first compound 1 µM) of 85.1%, a viability, T/C (second compound 3.16 µM, first compound 3.16 µM) of 104% and a viability, T/C (second compound 3.16 µM, first compound 10 µM) of 99.7%. The viability, T/C (second compound 10 µM, first compound 0.0316 µM) was 103%, the viability, T/C (second compound 10 µM, first compound 0.1 µM) was 105% and the viability, T/C (second compound 10 µM, first compound 0.316 µM) was 98.6%. For the same compound, the viability, T/C (second compound 10 µM, first compound 1 µM) was 107%, the viability, T/C (second compound 10 µM, first compound 3.16 µM) was 90.8% and the viability, T/C (second compound 10 µM, first compound 10 µM) was 113%.
